Entries after “also recorded” stand apart in the source; their conditions may differ.
Experiments:
ADHS patients = conditions: cited from earlier work
[1] = tested on: attention deficit syndrome (ADHS) probands; assay: Open study of phosphatidylserine supplementation in ADHS probands (examples 1 to 4); format: in vivo, human
Method: Probands in an open study (examples 1 to 4) were selected with the aid of the Wender Utah Rating Scale (WURS) on the basis of their performance at school as well as clinical and physiological tests. They were assessed after 4, 6 and 8 weeks with the short-term supplementation and after 2, 4 and 6 months with the longer supplementation. The probands were examined for measurable differences with regard to concentration, attention, impulsivity, aggression potential and hyperactivity. Questionnaires were used to involve probands, parents and teachers in the evaluation.

[2] = high dosages 200 to 500 mg daily over 4 months
[3] = Example 3: 100 mg per day, 6 months, child, after the third month

For phosphatidylserine, the “improvement of the ADHS symptoms” value (ADHS patients; 100 mg per day over a period of 2 months) is listed as “did not result in a clear improvement”, the “side effects with drugs administered at the same time” value (ADHS patients; 100 to 500 mg daily) is listed as “no side effects occurred” and the “probands with positive effect” value (ADHS patients; 200 to 300 mg daily (severe symptoms up to 500 mg daily) over 4 months, probands aged 3 to 19 years) is listed as 25 of 27. The “improvement in single proband one” value (ADHS patients; [2]) was “not possible to make a clear statement about an improvement”, the “improvement in single proband two” value (ADHS patients; [2]) was “only a slight improvement” and the habituation effects ([1]; ADHS patients / probands with ADHS) was “no habituation effects occurred”. For the same substance, the “general well-being (reported by proband)” value ([1]; Example 2: 200 mg three times daily, 7 weeks, child) was “improvement”, the hyperactivity ([1]; Example 2: 200 mg three times daily, 7 weeks, child, end of supplementation) was “marked decline” and the “attentiveness, concentration and memory performance as well as achievement at school” value ([1]; Example 3: 100 mg per day, 6 months, child) was “improved considerably”. The general well-being [1, 3] was “improvement”, the mood [1, 3] was “uplift” and the tolerance ([1]; even in high doses and over a longer supplementation period) was “no limitation whatsoever on its wellknown good tolerance; also recorded: well tolerated”.

Source: patent US20040235795A1, “Utilization of phosphatidylserine in the treatment of attention deficit syndrome (adhs)” (priority 2001, published 2004)
